# Biological target: recombinant human LRRK2 (catalytic domain only [amino acids 970-2527], GST-tagged) (Homo sapiens (Human), UniProt Q5S007)
# Assay: LRRK2 Enzymatic Assay
# Assay type: biochemical
# Conditions: LRRKtide substrate, [32P]-ATP
# Procedure, shortened: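 Radiometric P81 filter-binding read-out of [32P]-ATP transfer to LRRKtide (20 μM) by 30 nM GST-LRRK2 970-2527, 2 h at room temperature after 20 min compound preincubation (10 μM–0.5 nM, 1% DMSO). IC50 derived from % remaining activity versus DMSO.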
# Sequence of recombinant human LRRK2 (catalytic domain only [amino acids 970-2527], GST-tagged) (Q5S007 970-2527): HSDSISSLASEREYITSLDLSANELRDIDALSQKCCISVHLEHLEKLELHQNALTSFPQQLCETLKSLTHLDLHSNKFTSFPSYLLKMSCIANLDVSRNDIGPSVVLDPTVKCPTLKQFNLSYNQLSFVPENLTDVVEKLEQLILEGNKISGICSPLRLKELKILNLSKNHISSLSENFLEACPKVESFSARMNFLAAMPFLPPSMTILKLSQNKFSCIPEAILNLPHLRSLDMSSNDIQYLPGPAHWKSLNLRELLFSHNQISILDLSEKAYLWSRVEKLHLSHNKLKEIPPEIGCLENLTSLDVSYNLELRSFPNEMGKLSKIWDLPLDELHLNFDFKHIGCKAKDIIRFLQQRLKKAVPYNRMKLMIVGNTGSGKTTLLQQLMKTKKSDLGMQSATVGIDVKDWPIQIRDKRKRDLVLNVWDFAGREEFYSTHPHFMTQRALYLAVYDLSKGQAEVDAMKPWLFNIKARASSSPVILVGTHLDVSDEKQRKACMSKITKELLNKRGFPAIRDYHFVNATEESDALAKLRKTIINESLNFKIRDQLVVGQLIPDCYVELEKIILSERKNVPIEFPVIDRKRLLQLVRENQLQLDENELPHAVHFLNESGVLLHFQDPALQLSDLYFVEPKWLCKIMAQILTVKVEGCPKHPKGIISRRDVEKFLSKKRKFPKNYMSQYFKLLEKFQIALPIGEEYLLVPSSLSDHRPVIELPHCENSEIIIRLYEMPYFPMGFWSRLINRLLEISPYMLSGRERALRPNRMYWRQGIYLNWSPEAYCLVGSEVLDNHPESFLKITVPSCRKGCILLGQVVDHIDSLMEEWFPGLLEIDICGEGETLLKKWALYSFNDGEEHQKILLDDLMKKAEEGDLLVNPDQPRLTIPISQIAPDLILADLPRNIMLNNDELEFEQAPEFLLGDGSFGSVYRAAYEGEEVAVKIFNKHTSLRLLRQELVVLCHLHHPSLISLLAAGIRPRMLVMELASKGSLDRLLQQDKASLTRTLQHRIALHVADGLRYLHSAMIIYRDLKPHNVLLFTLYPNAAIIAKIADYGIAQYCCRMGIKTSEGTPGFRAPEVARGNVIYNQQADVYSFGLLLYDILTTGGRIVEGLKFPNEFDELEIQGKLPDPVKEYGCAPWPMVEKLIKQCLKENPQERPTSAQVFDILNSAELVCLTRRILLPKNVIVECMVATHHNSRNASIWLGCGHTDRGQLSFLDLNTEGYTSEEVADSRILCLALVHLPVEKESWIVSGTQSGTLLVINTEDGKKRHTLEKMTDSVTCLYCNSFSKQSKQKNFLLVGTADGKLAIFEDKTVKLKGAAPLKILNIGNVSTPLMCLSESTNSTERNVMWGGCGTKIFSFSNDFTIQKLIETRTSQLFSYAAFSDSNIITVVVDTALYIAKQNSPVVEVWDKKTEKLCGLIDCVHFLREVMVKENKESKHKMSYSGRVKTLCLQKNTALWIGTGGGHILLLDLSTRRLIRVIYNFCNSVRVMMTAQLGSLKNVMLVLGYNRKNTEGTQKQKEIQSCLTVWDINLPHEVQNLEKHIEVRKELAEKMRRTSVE
row,Structure (SMILES),IC50 [nM]
1,"CC(=O)N[C@H]1CC[C@H](COc2ccnc(Nc3cn(C(C)(C)C#N)nc3C)n2)CC1 [Example 74, N-((1R,4R)-4-(((2-((1-(2-cyanopropan-2-yl)-3-methyl-1H-pyrazol-4-yl)amino)pyrimidin-4-yl)oxy)methyl)cyclo-hexyl)acetamide]",50 to 200
2,"CC(=O)N[C@H]1CC[C@H](COc2ccnc(Nc3cn(C4CC(C#N)C4)nc3C)n2)CC1 (stereo partly drawn) [Example 75, N-((1R,4R)-4-(((2-((1-(3-cyanocyclobutyl)-3-methyl-1H-pyrazol-4-yl)amino)pyrimidin-4-yl)oxy)methyl)cyclo-hexyl)acetamide]",> 400
3,"CC(=O)N[C@H]1CC[C@H](COc2ccnc(Nc3cnn(C(C)C)c3)n2)CC1 [Example 76, N-((1R,4R)-4-(((2-((1-isopropyl-1H-pyrazol-4-yl)amino)pyrimidin-4-yl)oxy)methyl)cyclo-hexyl)acetamide]",50 to 200
4,"CC(=O)NC12CCC(COc3ccnc(Nc4ccc(N5CCOCC5)cc4)n3)(CC1)CC2 [Example 77, N-(4-(((2-((4-morpholinophenyl)amino)pyrimidin-4-yl)oxy)methyl)bicyclo [2.2.2]octan-1-yl)acetamide]",> 400
5,"CC(=O)NC12CCC(COc3ccnc(Nc4cn(C(C)(C)C#N)nc4C)n3)(CC1)CC2 [Example 78, N-(4-(((2-((1-(2-cyanopropan-2-yl)-3-methyl-1H-pyrazol-4-yl)amino)pyrimidin-4-yl)oxy)methyl)bicyclo [2.2.2]octan-1-yl)acetamide]",200 to 400
6,"CC(=O)NC12C3C4C1C1C2C3C41COc1ccnc(Nc2ccc(N3C[C@@H](C)O[C@@H](C)C3)cc2)n1 (stereo partly drawn) [Example 79, N-(4-(((2-((4-((2S,6R)-2,6-dimethylmorpholino)phenyl)amino)py-rimidin-4-yl)oxy)methyl)cuban-1-yl)acetamide]",200 to 400
7,"CC(=O)N[C@H]1CC[C@H](COc2nc(Nc3ccc(N4CCOCC4)cc3)ncc2C2CC2)CC1 [Example 88, N-((1R,4R)-4-(((5-cyclopropyl-2-((4-morpholinophenyl)amino)pyrimidin-4-yl)oxy)methyl)cyclo-hexyl)acetamide]",50 to 200
8,"CC(=O)N[C@H]1CC[C@@H](COc2ccnc(Nc3ccc(N4CCOCC4)cc3)n2)C1 [Example 89, N-((1S,3R)-3-(((2-((4-morpholinophenyl)amino)pyrimidin-4-yl)oxy)methyl)cyclo-pentyl)acetamide]",> 400
9,"CC(=O)NC1CCC(C)(COc2ccnc(Nc3ccc(N4C[C@@H](C)O[C@@H](C)C4)cc3)n2)CC1 (stereo partly drawn) [Example 90, N-(4-(((2-((4-((2S,6R)-2,6-dimethylmorpholino)phenyl)amino)py-rimidin-4-yl)oxy)methyl)-4-methylcyclohexyl) acetamide]",> 400
10,"CC(=O)NC1CCC(C)(COc2ccnc(Nc3ccc(N4CCOCC4)cc3)n2)CC1 (stereo not drawn) [Example 91, N-(4-methyl-4-(((2-((4-morpholinophenyl)amino)pyrimidin-4-yl)oxy)methyl)cyclo-hexyl)acetamide]",> 400
11,"CC(=O)N[C@H]1C[C@H](COc2nc(Nc3ccc(N4CCOCC4)cc3)ncc2F)C1 [Example 92, N-((1R,3R)-3-(((5-fluoro-2-((4-morpholinophenyl)amino)pyrimidin-4-yl)oxy)methyl)cyclo-butyl)acetamide]",200 to 400
12,"CC(=O)N[C@H]1C[C@H](COc2ccnc(Nc3ccc(N4CCOCC4)cc3)n2)C1 [Example 94, N-((1R,3R)-3-(((2-((4-morpholinophenyl)amino)pyrimidin-4-yl)oxy)methyl)cyclo-butyl)acetamide]",> 400
13,CC(=O)N1CC2(CC(COc3nc(Nc4ccc(N5C[C@@H](C)O[C@@H](C)C5)cc4)ncc3F)C2)C1 [Example 97],> 400
14,"O=C(N[C@H]1CC[C@H](COc2ccnc(Nc3ccc(N4CCOCC4)cc3)n2)CC1)C(F)(F)F [Example 98, 2,2,2-trifluoro-N-((1R,4R)-4-(((2-((4-morpholino-phenyl)amino)pyrimidin-4-yl)oxy)methyl)cyclohexyl) acetamide]",50 to 200
15,"FC(F)CN[C@H]1CC[C@H](COc2ccnc(Nc3ccc(N4CCOCC4)cc3)n2)CC1 [Example 103, 4-(((1R,4R)-4-((2,2-difluoro-ethyl)amino)cyclohexyl)methoxy)-N-(4-morpholino-phenyl) pyrimidin-2-amine]",< 50
16,"FC(F)(F)CN[C@H]1CC[C@H](COc2ccnc(Nc3ccc(N4CCOCC4)cc3)n2)CC1 [Example 104, N-(4-morpholino-phenyl)-4-(((1R,4R)-4-((2,2,2-trifluoroethyl)amino)cyclohexyl)methoxy) pyrimidin-2-amine]",50 to 200
17,"COc1cnc(Nc2ccc(N3CCOCC3)cc2)nc1OC[C@H]1CC[C@H](NCC(F)(F)F)CC1 [Example 105, 5-methoxy-N-(4-morpholino-phenyl)-4-(((1R,4R)-4-((2,2,2-trifluoroethyl)amino)cyclohexyl)methoxy) pyrimidin-2-amine]",50 to 200
18,"FC(F)CN[C@H]1CC[C@H](COc2nc(Nc3cccc(N4CCOCC4)c3)ncc2Cl)CC1 [Example 107, 5-chloro-4-(((1R,4R)-4-((2,2-difluoro-ethyl)amino)cyclohexyl)methoxy)-N-(3-morpholino-phenyl) pyrimidin-2-amine]",< 50

# Continued, values first:
row,IC50 [nM],Structure (SMILES)
1,< 50,"CC(=O)N[C@H]1CC[C@H](COc2nc(Nc3ccc(N4CCOCC4)cc3)ncc2Cl)CC1 [Example 80, N-((1R,4R)-4-(((5-chloro-2-((4-morpholinophenyl)amino)pyrimidin-4-yl)oxy)methyl)cyclo-hexyl)acetamide]"
2,< 50,"CC(=O)N[C@H]1CC[C@H](COc2nc(Nc3cn(C(C)(C)C#N)nc3C)ncc2Cl)CC1 [Example 81, N-((1R,4R)-4-(((5-chloro-2-((1-(2-cyanopropan-2-yl)-3-methyl-1H-pyrazol-4-yl)amino)pyrimidin-4-yl)oxy)methyl)cyclo-hexyl)acetamide]"
3,< 50,"CC(=O)N[C@H]1CC[C@H](COc2nc(Nc3ccc(N4CCOCC4)cc3)ncc2F)CC1 [Example 82, N-((1R,4R)-4-(((5-fluoro-2-((4-morpholinophenyl)amino)pyrimidin-4-yl)oxy)methyl)cyclo-hexyl)acetamide]"
4,< 50,CC(=O)N[C@H]1CC[C@H](COc2nc(Nc3ccc(N4C[C@@H](C)O[C@@H](C)C4)cc3)ncc2F)CC1 [Example 83]
5,< 50,"CC(=O)N[C@H]1CC[C@H](COc2nc(Nc3cn(C(C)(C)C#N)nc3C)ncc2F)CC1 [Example 84, N-((1R,4R)-4-(((2-((1-(2-cyanopropan-2-yl)-3-methyl-1H-pyrazol-4-yl)amino)-5-fluoropyrimidin-4-yl)oxy)methyl)cyclo-hexyl)acetamide]"
6,< 50,"CC(=O)NC1CCCC(COc2nc(Nc3ccc(N4CCOCC4)cc3)ncc2F)CC1 (stereo not drawn) [Example 85, N-(4-(((5-fluoro-2-((4-morpholinophenyl)amino)pyrimidin-4-yl)oxy)methyl)cyclo-heptyl)acetamide]"
7,< 50,"CC(=O)N[C@H]1CC[C@H](COc2nc(Nc3cn(C(C)(C)C#N)nc3C)ncc2C)CC1 [Example 87, N-((1R,4R)-4-(((2-((1-(2-cyanopropan-2-yl)-3-methyl-1H-pyrazol-4-yl)amino)-5-methylpyrimidin-4-yl)oxy)methyl)cyclo-hexyl)acetamide]"
8,< 50,"CC(=O)NC1CCCC(COc2nc(Nc3ccc(N4C[C@@H](C)O[C@@H](C)C4)cc3)ncc2F)CC1 (stereo partly drawn) [Example 93, N-(4-(((2-((4-((2S,6R)-2,6-dimethylmorpholino)phenyl)amino)-5-fluoropyrimidin-4-yl)oxy)methyl)cyclo-heptyl)acetamide]"
9,< 50,"CC(=O)N1CCC(COc2nc(Nc3ccc(N4CCOCC4)cc3)ncc2Cl)C(F)(F)C1 (stereo not drawn) [Example 95, 1-(4-(((5-chloro-2-((4-morpholinophenyl)amino)pyrimidin-4-yl)oxy)methyl)-3,3-difluoropiperidin-1-yl)ethan-1-one]"
10,< 50,"CC(=O)N1CCC(COc2nc(Nc3cn(C(C)(C)C#N)nc3C)ncc2Cl)C(F)(F)C1 (stereo not drawn) [Example 96, 2-(4-((4-((1-acetyl-3,3-difluoropiperidin-4-yl)methoxy)-5-chloropyrimidin-2-yl)amino)-3-methyl-1H-pyrazol-1-yl)-2-methylpropanenitrile]"
11,< 50,"O=C(N[C@H]1CC[C@H](COc2nc(Nc3ccc(N4CCOCC4)cc3)ncc2F)CC1)C(F)(F)F [Example 99, 2,2,2-trifluoro-N-((1R,4R)-4-(((5-fluoro-2-((4-morpholino-phenyl)amino)pyrimidin-4-yl)oxy)methyl)cyclohexyl) acetamide]"
12,< 50,"Cc1nn(C(C)(C)C#N)cc1Nc1ncc(Cl)c(OC[C@H]2CC[C@H](NC(=O)C(F)F)CC2)n1 [Example 100, N-((1R,4R)-4-(((5-chloro-2-((1-(2-cyano-propan-2-yl)-3-methyl-1H-pyrazol-4-yl)amino)pyrimidin-4-yl)oxy)methyl)cyclohexyl)-2,2-difluoro-acetamide]"
13,< 50,"O=C(N[C@H]1CC[C@H](COc2nc(Nc3cccc(N4CCOCC4)c3)ncc2Cl)CC1)C(F)F [Example 101, N-((1R,4R)-4-(((5-chloro-2-((3-morpholino-phenyl)amino)pyrimidin-4-yl)oxy)methyl)cyclohexyl)-2,2-difluoro-acetamide]"
14,< 50,"O=C(N[C@H]1CC[C@@H](COc2nc(Nc3ccc(N4CCOCC4)cc3)ncc2Cl)C1)C(F)F [Example 102, N-((1S,3R)-3-(((5-chloro-2-((4-morpholino-phenyl)amino)pyrimidin-4-yl)oxy)methyl)cyclopentyl)-2,2-difluoro-acetamide]"
15,< 50,"FC(F)(F)CN[C@H]1CC[C@H](COc2nc(Nc3ccc(N4CCOCC4)cc3)ncc2Cl)CC1 [Example 108, 5-chloro-N-(4-morpholino-phenyl)-4-(((1R,4R)-4-((2,2,2-trifluoroethyl)amino)cyclohexyl)methoxy) pyrimidin-2-amine]"

# — patent US11578061B2, “Inhibitors of LRRK2 kinase” (Halia Therapeutics, Inc., priority 2021, dated 2023)
